≈ marks a conversion by molar mass, not a printed value.
Key:
Format in all cases: functional
Pseudomonas aeruginosa [1] = assay: Antimicrobial susceptibility of carbapenem-resistant Pseudomonas aeruginosa PA4036 isolate expressing carbapenemase KPC2
Pseudomonas aeruginosa [2] = assay: Antimicrobial susceptibility of carbapenem-resistant Pseudomonas aeruginosa PA4012 isolate expressing carbapenemase KPC2
Citrobacter freundii = assay: Antimicrobial susceptibility of Citrobacter freundii CF6010 isolate expressing carbapenemase KPC2
Pseudomonas aeruginosa [3] = assay: Antimicrobial susceptibility of carbapenem-resistant Pseudomonas aeruginosa PA2404 isolate expressing carbapenemase KPC2

Row | Molecule | MIC (Pseudomonas aeruginosa [1]) | MIC (Pseudomonas aeruginosa [2]) | MIC (Citrobacter freundii) | MIC (Pseudomonas aeruginosa [3])
1 | CC(C)(O/N=C(\C(=O)N[C@@H]1C(=O)N2C(C(=O)[O-])=C(C[n+]3ccccc3)CS[C@H]12)c1csc(N)n1)C(=O)O [CEFTAZIDIME] | 256 µg/mL (≈ 468 µM) | 256 µg/mL (≈ 468 µM) | 32 µg/mL (≈ 58.5 µM) | 256 µg/mL (≈ 468 µM)
2 | C[C@@H](O)[C@H]1C(=O)N2C(C(=O)O)=C(S[C@@H]3CN[C@H](C(=O)N(C)C)C3)[C@H](C)[C@H]12 [MEROPENEM] | > 256 µg/mL | > 256 µg/mL | 8 µg/mL (≈ 20.9 µM) | > 256 µg/mL
3 | CO/N=C(\C(=O)N[C@@H]1C(=O)N2C(C(=O)O)=C(CSc3nc(=O)c(O)nn3C)CS[C@H]12)c1csc(N)n1 [CEFTRIAXONE] | > 256 µg/mL | > 256 µg/mL | 256 µg/mL (≈ 462 µM) | > 256 µg/mL
4 | C[C@H]1[C@H](NC(=O)/C(=N\OC(C)(C)C(=O)O)c2csc(N)n2)C(=O)N1S(=O)(=O)O [AZTREONAM] | > 256 µg/mL | > 256 µg/mL | 128 µg/mL (≈ 294 µM) | > 256 µg/mL
5 | CO/N=C(\C(=O)N[C@@H]1C(=O)N2C(C(=O)O)=C(COC(C)=O)CS[C@H]12)c1csc(N)n1 (stereo in doubt) [CEFOTAXIME] | > 256 µg/mL | > 256 µg/mL | 32 µg/mL (≈ 70.3 µM) | > 256 µg/mL
6 | NC[C@H]1O[C@H](O[C@H]2[C@H](O)[C@@H](O[C@H]3O[C@H](CO)[C@@H](O)[C@H](N)[C@H]3O)[C@H](N)C[C@@H]2N)[C@H](N)C[C@@H]1O [TOBRAMYCIN] | > 128 µg/mL | > 128 µg/mL | 64 µg/mL (≈ 137 µM) | > 128 µg/mL
7 | CN(C)c1cc(NC(=O)CNC(C)(C)C)c(O)c2c1C[C@H]1C[C@H]3[C@H](N(C)C)C(O)=C(C(N)=O)C(=O)[C@@]3(O)C(O)=C1C2=O [TIGECYCLINE] | 16 µg/mL (≈ 27.3 µM) | 16 µg/mL (≈ 27.3 µM) | 0.5 µg/mL (≈ 0.854 µM) | 16 µg/mL (≈ 27.3 µM)
8 | NCC[C@H](O)C(=O)N[C@@H]1C[C@H](N)[C@@H](O[C@H]2O[C@H](CN)[C@@H](O)[C@H](O)[C@H]2O)[C@H](O)[C@H]1O[C@H]1O[C@H](CO)[C@@H](O)[C@H](N)[C@H]1O [AMIKACIN] | 16 µg/mL (≈ 27.3 µM) | 16 µg/mL (≈ 27.3 µM) | 2 µg/mL (≈ 3.42 µM) | 16 µg/mL (≈ 27.3 µM)
9 | CC1(C)S[C@@H]2[C@H](NC(=O)[C@H](N)c3ccccc3)C(=O)N2[C@H]1C(=O)O [AMPICILLIN] | > 256 µg/mL | > 256 µg/mL | > 256 µg/mL | > 256 µg/mL
10 | CO/N=C(\C(=O)N[C@@H]1C(=O)N2C(C(=O)[O-])=C(C[N+]3(C)CCCC3)CS[C@H]12)c1csc(N)n1 [CEFEPIME] | > 256 µg/mL | > 256 µg/mL | 8 µg/mL (≈ 16.6 µM) | > 256 µg/mL
11 | COLISTIN | 1 µg/mL | 2 µg/mL | 0.5 µg/mL | 1 µg/mL
12 | GENTAMICIN | > 128 µg/mL | > 128 µg/mL | > 128 µg/mL | > 128 µg/mL
13 | CC(O)[C@H]1C(=O)N2C(C(=O)O)=C(SCCNC=N)C[C@H]12 (single isomer, unassigned) [IMIPENEM ANHYDROUS] | > 256 µg/mL | > 256 µg/mL | 8 µg/mL (≈ 26.7 µM) | 256 µg/mL (≈ 855 µM)
14 | C[C@@H](O)[C@H]1C(=O)N2C(C(=O)O)=C(S[C@@H]3CN[C@H](C(=O)Nc4cccc(C(=O)O)c4)C3)[C@H](C)[C@H]12 [ERTAPENEM] | > 256 µg/mL | 256 µg/mL (≈ 538 µM) | 16 µg/mL (≈ 33.6 µM) | > 256 µg/mL
15 | CCN1CCN(C(=O)N[C@@H](C(=O)N[C@@H]2C(=O)N3[C@@H]2SC(C)(C)[C@@H]3C(=O)O)c2ccccc2)C(=O)C1=O [PIPERACILLIN] | > 256 µg/mL | > 256 µg/mL | > 256 µg/mL | > 256 µg/mL
